Drawing on ChEMBL document CHEMBL1148158, “Antineoplastic Agents. 510. Isolation and structure of dolastatin 19 from the Gulf of California sea hare Dolabella auricularia” (2004), this text covers GI50 for one molecule.

Each structure is given as a SMILES string. Values after ≈ are worked out from the molar mass of the structure shown.

Experiment [1] deals with MCF7. Nature of the experiment: Growth inhibition of human MCF7 cells. The format is functional.
The subject of experiment [2] is KM-20L2. Nature of the experiment: Growth inhibition of human KM20L2 cells. The format is functional.

As a reminder, the GI50 is the concentration giving 50% growth inhibition. Low values mean more potent growth inhibition, high ones less potent growth inhibition. Regarding `CO[C@@H]1[C@@H](O)[C@@H](OC)[C@H](O[C@@H]2C[C@]3(O)O[C@H](C[C@H](OC)/C=C(\C)C[C@@H](/C=C/C=C/Br)OC(=O)[C@H]3C)[C@H]2C)O[C@H]1C` [DOLASTATIN 19], the GI50 in experiment [1] is 0.72 µg/mL (≈ 1.14 µM); in experiment [2] it was 0.76 µg/mL (≈ 1.2 µM).
